This note sets out measurements from ChEMBL document CHEMBL1201862, “PubChem BioAssay data set” (2004).

Test in all cases: NCI tumour cell line growth inhibition, 48 h
For experiment [1], the system named is DU-145.
Experiment [2] relates to MDA-N.
For experiment [3], the system named is PC-3.
Experiment [4] deals with Hs-578T.
The test system of experiment [5] is 786-0.
Experiment [6] deals with LXFL 529.
In experiment [7] the test system is RXF 631.
The subject of experiment [8] is HOP-18.
The test system of experiment [9] is KM-20L2.

Molecules are shown by their SMILES. Counter-ions that a name gives are not always drawn.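 Grown in 96-well plates, cells were treated for 48 hours with each compound at five concentrations. Insufficient inhibition: endpoint recorded as highest concentration tested. Abbreviation: GI50, concentration required for 50% inhibition of growth.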 Activity calls are given as the source filed them. Rule as the data show it: active = GI50 up to about 1.1 µM and inactive = higher.

On to `COc1cc2c(cc1OC)C1Cc3cc(OC)c(OC)cc3C(C2)O1`, for which the GI50 in experiment [1], in experiment [2] and in [3] was > 100 µM (inactive) throughout.
As for `Cc1cc(C)c(NC(=O)/C=C/c2ccccc2)c(C)c1`, the results for the GI50 in [4] and in experiment [3] were 57.7 µM (inactive) and > 100 µM (inactive), respectively.
As for `N#CCCN(c1ccc(/C=N/c2cccc([N+](=O)[O-])c2)cc1)S(=O)(=O)c1ccccc1`, the GI50 in [5], in experiment [6] and in [7] was > 100 µM (inactive) throughout.
`O=C(N[C@H]1c2ccsc2/C(=N/O)[C@H]1O)C(F)(F)F`: the GI50 in [1], in [4], in experiment [2] and in experiment [3] was > 100 µM (inactive) throughout.
In the case of `CSCSCC(CO)NC(=O)/C(C)=C\c1c(C)[nH]c(=O)[nH]c1=O` (stereo unspecified), the GI50 in [8] and in experiment [9] was > 250 µM (inactive) throughout.
For `CN1CCc2[nH]c3ccccc3c2C1`, the GI50 in experiment [8] and in experiment [9] was > 100 µM (inactive) each time.
As to `CCCc1c(-c2ccccc2)[nH]c2ccccc2c1=O`, the GI50 in experiment [1] was > 100 µM (inactive); in experiment [4] it was > 100 µM (inactive); in [2], 41.4 µM (inactive); in experiment [3], > 100 µM (inactive).
As to `CCCCn1cc[n+](-c2nc3ccccc3n2C)c1`, the GI50 in experiment [8], in experiment [9], in [6] and in [7] was > 100 µM (inactive) each time.
Regarding `c1ccc(Nc2nnc(-c3nsc4ccccc34)o2)cc1`, the figures for the GI50 in experiment [8], in experiment [9] and in experiment [6] were > 100 µM (inactive), > 100 µM (inactive) and 85.5 µM (inactive), respectively.
On to `CNCCC=C1c2ccccc2CCc2ccccc21` [NORTRIPTYLINE HYDROCHLORIDE], for which the GI50 was 14.6 µM (inactive) in experiment [5]; 14.5 µM (inactive) in experiment [1]; 19.6 µM (inactive) in experiment [4]; 15.6 µM (inactive) in experiment [2]; 14.3 µM (inactive) in experiment [3].
As for `C/C(=C\c1ccccc1)C(=O)CCN1CCOCC1`, the figures for the GI50 in experiment [8] and in experiment [9] were 18.3 µM (inactive) and 19.5 µM (inactive), respectively.
As to `C[C@]12CC[C@H]3[C@@H](CC=C4C[C@@H](O)CC[C@@]43C)[C@@H]1C/C(=C\c1ccc([N+](=O)[O-])cc1)[C@@H]2O`, the GI50 was 10.9 µM (inactive) in [5], 11 µM (inactive) in [1], 16.9 µM (inactive) in experiment [4] and 14.3 µM (inactive) in [3].
As to `COc1ccc(/C=C2/C(=O)N(C(=O)c3ccccc3O)N=C2C)cc1`, the GI50 in [5] is 0.598 µM (active); in experiment [1], 0.192 µM (active); in experiment [9], 16.5 µM (inactive); in experiment [6], 0.205 µM (active); in experiment [2], 0.125 µM (active); in [3], 0.535 µM (active).
For the compound `CC(C)OP(=O)(OC(C)C)c1ncn(-c2ccc([N+](=O)[O-])cc2)n1`, the GI50 in experiment [9] and in [6] was > 100 µM (inactive) each time.
